According to patent US20250197372A1 (priority 2020, published 2025):

How the values were obtained:
Type in all cases: biochemical
[1] = target: T1, recombinant alpha-glucosidase II (murine full-length glucosidase II, alpha and beta subunits, Glu 2) (Mus musculus, UniProt Q8BHN3); assay: Alpha-glucosidase II assay (4-methylumbelliferyl-alpha-D-pyranoside substrate, fluorescence); conditions: Glucosidase 2; read-out: Glu2 IC50
T1 construct: made in house; host or cells: HEK-293T cells transduced with BacMam viruses (75% alpha, 25% beta); protein harvested from culture supernatant
T1 sequence (O08795 15-521): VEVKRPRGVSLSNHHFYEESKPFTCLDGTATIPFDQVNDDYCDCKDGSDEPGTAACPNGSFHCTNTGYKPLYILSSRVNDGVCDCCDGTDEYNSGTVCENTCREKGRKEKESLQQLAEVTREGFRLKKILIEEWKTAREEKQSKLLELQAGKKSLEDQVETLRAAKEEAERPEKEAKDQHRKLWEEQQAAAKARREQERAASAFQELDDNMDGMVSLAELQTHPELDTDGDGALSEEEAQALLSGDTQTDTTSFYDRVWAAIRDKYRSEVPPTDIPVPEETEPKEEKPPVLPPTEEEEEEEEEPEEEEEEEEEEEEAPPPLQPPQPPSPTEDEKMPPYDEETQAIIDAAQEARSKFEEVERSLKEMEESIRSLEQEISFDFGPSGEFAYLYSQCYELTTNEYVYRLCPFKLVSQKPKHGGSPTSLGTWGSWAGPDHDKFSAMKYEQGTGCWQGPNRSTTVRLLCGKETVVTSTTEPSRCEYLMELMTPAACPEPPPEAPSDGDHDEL
T1 sequence (Q8BHN3 33-944): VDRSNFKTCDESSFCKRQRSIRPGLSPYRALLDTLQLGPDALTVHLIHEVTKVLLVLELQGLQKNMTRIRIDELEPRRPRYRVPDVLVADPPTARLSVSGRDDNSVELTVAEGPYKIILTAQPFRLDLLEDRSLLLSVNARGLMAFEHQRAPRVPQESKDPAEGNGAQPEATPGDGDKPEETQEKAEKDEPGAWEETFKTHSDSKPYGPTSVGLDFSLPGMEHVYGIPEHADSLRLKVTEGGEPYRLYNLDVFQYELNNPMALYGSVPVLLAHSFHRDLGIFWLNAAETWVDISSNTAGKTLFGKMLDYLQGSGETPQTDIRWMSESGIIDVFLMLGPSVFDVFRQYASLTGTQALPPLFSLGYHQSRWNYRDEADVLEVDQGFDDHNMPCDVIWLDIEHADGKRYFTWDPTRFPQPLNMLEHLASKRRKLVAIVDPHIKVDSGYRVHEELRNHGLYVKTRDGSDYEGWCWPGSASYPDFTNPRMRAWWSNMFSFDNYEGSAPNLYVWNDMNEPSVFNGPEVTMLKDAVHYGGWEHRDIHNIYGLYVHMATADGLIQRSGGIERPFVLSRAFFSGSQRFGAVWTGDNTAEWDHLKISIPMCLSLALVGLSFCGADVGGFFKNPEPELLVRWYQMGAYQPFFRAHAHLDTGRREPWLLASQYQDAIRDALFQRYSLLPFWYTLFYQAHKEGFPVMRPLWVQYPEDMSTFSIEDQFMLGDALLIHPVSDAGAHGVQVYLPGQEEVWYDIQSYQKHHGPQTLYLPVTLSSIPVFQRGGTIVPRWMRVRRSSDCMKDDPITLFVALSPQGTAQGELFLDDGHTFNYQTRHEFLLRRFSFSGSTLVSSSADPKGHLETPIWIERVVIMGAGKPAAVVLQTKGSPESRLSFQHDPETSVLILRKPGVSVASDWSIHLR

[2] = target: T2, recombinant alpha-glucosidase I (human full-length glucosidase I, Glu 1) (Homo sapiens, UniProt Q13724); assay: Alpha-glucosidase I assay (Amplex Red glucose detection, synthetic trisaccharide substrate); conditions: Glucosidase 1; read-out: Glu 1 IC50
T2 construct: 6-His (C); made in house; host or cells: HEK-293T cells transduced with BacMam virus (virus raised in Sf9)
T2 sequence (Q13724 1-837): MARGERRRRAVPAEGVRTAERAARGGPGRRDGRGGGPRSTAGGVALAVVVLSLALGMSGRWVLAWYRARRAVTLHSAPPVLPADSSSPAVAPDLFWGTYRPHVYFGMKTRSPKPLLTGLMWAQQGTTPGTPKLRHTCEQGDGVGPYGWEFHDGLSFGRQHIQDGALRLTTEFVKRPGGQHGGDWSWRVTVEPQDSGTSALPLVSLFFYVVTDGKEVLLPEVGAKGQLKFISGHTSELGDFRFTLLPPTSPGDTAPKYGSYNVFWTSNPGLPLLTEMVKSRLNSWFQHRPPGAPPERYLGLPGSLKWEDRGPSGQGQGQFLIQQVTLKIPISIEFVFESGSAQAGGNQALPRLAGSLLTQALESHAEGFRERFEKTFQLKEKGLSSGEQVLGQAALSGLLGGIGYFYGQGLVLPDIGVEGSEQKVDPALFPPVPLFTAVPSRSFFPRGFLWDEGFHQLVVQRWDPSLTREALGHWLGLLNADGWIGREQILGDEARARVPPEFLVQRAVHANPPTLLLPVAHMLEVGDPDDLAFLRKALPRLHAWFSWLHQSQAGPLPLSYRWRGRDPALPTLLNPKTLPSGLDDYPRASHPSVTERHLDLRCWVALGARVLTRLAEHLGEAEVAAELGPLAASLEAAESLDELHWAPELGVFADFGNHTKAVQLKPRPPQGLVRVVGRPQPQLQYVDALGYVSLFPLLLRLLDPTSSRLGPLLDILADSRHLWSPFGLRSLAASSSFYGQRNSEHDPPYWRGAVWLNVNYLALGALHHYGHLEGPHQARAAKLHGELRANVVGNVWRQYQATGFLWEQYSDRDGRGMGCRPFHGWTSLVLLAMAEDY
In short: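 Compound dilution series incubated 60 min at 37° C with recombinant His-tagged human glucosidase I ([…]), after which trisaccharide substrate analog was added for 90 min at 37° C. Reaction quenched with 1.5M Tris pH 8; D-glucose detected by Amplex Red fluorescence, 560/590 nm. 4-PL curve fit of percent inhibition gave IC50.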

[3] = target: rat maltase (partially purified alpha-glucosidase from intestinal rat powder); assay: Intestinal alpha-glucosidase assay, maltose substrate (Glucose GO Kit)
In short: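 Enzyme from intestinal rat powder, partially purified, is exposed to compound for 60 min at 37 °C. Disaccharide substrate (maltose or sucrose respectively) then reacts 30 min at 37 °C. Heat-stopped samples are assayed for glucose, and percent inhibition versus concentration gives IC50 via 4-PL.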

Compound	IC50 [1]	IC50 [2]	IC50 [3]
OC[C@@H]1[C@@H](O)[C@H](O)[C@@H](O)CN1Cc1ccc(CNc2ccc(-c3ccc[nH]3)cc2)cc1 [Compound 1094, (2R,3R,4R,5S)-2-(hydroxymethyl)-1-{[4-({[4-(1H-pyrrol-2-yl)phenyl]amino}methyl)phenyl]methyl}piperidine-3,4,5-triol]	177 nM	28 nM	19 nM
Cc1cc(CN2CCOCC2)cc(NCCCCCCN2C[C@H](O)[C@@H](O)[C@H](O)[C@H]2CO)c1 [Compound 1003, (2R,3R,4R,5S)-2-(hydroxymethyl)-1-[6-({3-methyl-5-[(morpholin-4-yl)methyl]phenyl}amino)hexyl]piperidine-3,4,5-triol]	2 nM	366 nM	21 nM
O=C(O)c1cc(NCCCCCCN2C[C@H](O)[C@@H](O)[C@H](O)[C@H]2CO)cc(-c2ncccn2)c1 [Compound 1118, 3-(pyrimidin-2-yl)-5-({6-[(2R,3R,4R,5S)-3,4,5-trihydroxy-2-(hydroxymethyl)piperidin-1-yl]hexyl}amino) benzoic acid]	5 nM	10 nM	4 nM
N#Cc1cc(NCc2cccc(CN3C[C@H](O)[C@@H](O)[C@H](O)[C@H]3CO)c2)cc(-c2ncccn2)c1 [Compound 1047, 3-(pyrimidin-2-yl)-5-{[(3-{[(2R,3R,4R,5S)-3,4,5-trihydroxy-2-(hydroxymethyl)piperidin-1-yl]methyl}phenyl)methyl]amino}benzonitrile]	12900 nM	13 nM	< 1 nM
CS(=O)(=O)c1cc(NCc2ccc(CN3C[C@H](O)[C@@H](O)[C@H](O)[C@H]3CO)cc2)cc(-c2ncccn2)c1 [Compound 1059, (2R,3R,4R,5S)-2-(hydroxymethyl)-1-{[4-({[3-methanesulfonyl-5-(pyrimidin-2-yl)phenyl]amino}methyl)phenyl]methyl}piperidine-3,4,5-triol]	58 nM	33 nM	8 nM
COc1cc(NCCc2ccc(CCN3C[C@H](O)[C@@H](O)[C@H](O)[C@H]3CO)cc2)cc(-c2noc(C3CCC3)n2)c1 [Compound 1120, (2R,3R,4R,5S)-1-{2-[4-(2-{[3-(5-cyclobutyl-1,2,4-oxadiazol-3-yl)-5-methoxyphenyl]amino}ethyl)phenyl]ethyl}-2-(hydroxymethyl)piperidine-3,4,5-triol]	1 nM	1130 nM	186 nM
O=S(=O)(Nc1cc(NCCCCCCN2C[C@H](O)[C@@H](O)[C@H](O)[C@H]2CO)cc(-c2ncccn2)c1)C1CC1 [Compound 1114, N-[3-(pyrimidin-2-yl)-5-({6-[(2R,3R,4R,5S)-3,4,5-trihydroxy-2-(hydroxymethyl)piperidin-1-yl]hexyl}amino)phenyl]cyclopropanesulfonamide]	3 nM	108 nM	5 nM
O=[N+]([O-])c1cc(-c2ncco2)ccc1NCCc1ccc(CCN2C[C@H](O)[C@@H](O)[C@H](O)[C@H]2CO)cc1 [Compound 1112, (2R,3R,4R,5S)-2-(hydroxymethyl)-1-{2-[4-(2-{[2-nitro-4-(1,3-oxazol-2-yl)phenyl]amino}ethyl)phenyl]ethyl}piperidine-3,4,5-triol]	101 nM	89 nM	1 nM
N#Cc1cc(NCc2ccc(CN3C[C@H](O)[C@@H](O)[C@H](O)[C@H]3CO)cc2)cc(-c2ccc[nH]2)c1 [Compound 1063, 3-(1H-pyrrol-2-yl)-5-{[(4-{[(2R,3R,4R,5S)-3,4,5-trihydroxy-2-(hydroxymethyl)piperidin-1-yl]methyl}phenyl)methyl]amino}-benzonitrile]	70 nM	1 nM	< 1 nM
O=[N+]([O-])c1cc(CN2CCCO2)ccc1NCc1cccc(CN2C[C@H](O)[C@@H](O)[C@H](O)[C@H]2CO)c1 [Compound 1086]	44200 nM	132 nM	124 nM
O=[N+]([O-])c1cc(-c2ncccn2)ccc1NCc1ccc(CN2C[C@H](O)[C@@H](O)[C@H](O)[C@H]2CO)cc1 [Compound 1102, (2R,3R,4R,5S)-2-(hydroxymethyl)-1-{[4-({[2-nitro-4-(pyrimidin-2-yl)phenyl]amino}methyl)phenyl]methyl}piperidine-3,4,5-triol]	64 nM	< 1 nM	< 1 nM
Cc1cc(NCc2ccc(CN3C[C@H](O)[C@@H](O)[C@H](O)[C@H]3CO)cc2)cc(N2CCOCC2)c1 [Compound 1048, (2R,3R,4R,5S)-2-(hydroxymethyl)-1-{[4-({[3-methyl-5-(morpholin-4-yl)phenyl]amino}methyl)phenyl]methyl}piperidine-3,4,5-triol]	550 nM	145 nM	13 nM
[N-]=[N+]=Nc1ccc(NCC[C@H]2CC[C@H](CCN3C[C@H](O)[C@@H](O)[C@H](O)[C@H]3CO)CC2)c([N+](=O)[O-])c1 [Compound 1107, (2R,3R,4R,5S)-2-(hydroxymethyl)-1-{2-[(1r,4r)-4-{2-[(4-azido-2-nitrophenyl)amino]ethyl}cyclohexyl]ethyl}piperidine-3,4,5-triol]	41 nM	107 nM	249 nM
N#Cc1cc(NCc2ccc(CN3C[C@H](O)[C@@H](O)[C@H](O)[C@H]3CO)cc2)cc(N2CCOCC2)c1 [Compound 1060, 3-(morpholin-4-yl)-5-{[(4-{[(2R,3R,4R,5S)-3,4,5-trihydroxy-2-(hydroxymethyl)piperidin-1-yl]methyl}phenyl)methyl]amino}-benzonitrile]	262 nM	41 nM	9 nM
O=[N+]([O-])c1cc(-c2ccc[nH]2)ccc1NCc1cccc(CN2C[C@H](O)[C@@H](O)[C@H](O)[C@H]2CO)c1 [Compound 1088, (2R,3R,4R,5S)-2-(hydroxymethyl)-1-{[3-({[2-nitro-4-(1H-pyrrol-2-yl)phenyl]amino}methyl)phenyl]methyl}piperidine-3,4,5-triol]	6360 nM	< 1 nM	< 1 nM
O=[N+]([O-])c1cc(-c2ccc[nH]2)ccc1NCc1ccc(CN2C[C@H](O)[C@@H](O)[C@H](O)[C@H]2CO)cc1 [Compound 1100, (2R,3R,4R,5S)-2-(hydroxymethyl)-1-{[4-({[2-nitro-4-(1H-pyrrol-2-yl)phenyl]amino}methyl)phenyl]methyl}piperidine-3,4,5-triol]	< 1 nM	< 1 nM	< 1 nM
OC[C@@H]1[C@@H](O)[C@H](O)[C@@H](O)CN1Cc1cccc(CNc2ccc(-c3ncccn3)cc2)c1 [Compound 1084, (2R,3R,4R,5S)-2-(hydroxymethyl)-1-{[3-({[4-(pyrimidin-2-yl)phenyl]amino}methyl)phenyl]methyl}piperidine-3,4,5-triol]	26600 nM	79 nM	95 nM
